Test [1] deals with d-amphetamine-induced PPI impairment. Nature of the test: Amphetamine-induced PPI deficit (ralfinamide and haloperidol association). Particulars: ralfinamide methanesulfonate per se 60 mg/kg p.o.; d-amphetamine 2.5 mg/kg s.c.; rats. In kind it is in vivo. As to the method:
A PPI test, carried out according to the method described in Example 4, was performed in rats.

A further test has as its target MAO-B (Rattus norvegicus, UniProt P19643). Nature of the test: biochemical. The procedure:
The crude homogenate was centrifuged at 2220 rpm for 10 minutes at +4° C. and the supernatant recovered. The pellet was homogenized and centrifuged again. The two supernatants were pooled and centrifuged at 9250 rpm for 10 minutes. The pellet was resuspended in fresh buffer and centrifuged at 11250 rpm for 10 minutes at +4° C. The resulting pellet was stored at −80° C.
The mitochondrial pellet (500 μg protein) was resuspended in 0.1 M phosphate buffer (pH 7.4). 500 μl of the suspension were added to a 50 μl solution of the test compound or buffer, and incubated for 30 min at 37° C. (preincubation) then the substrate (50 μl) was added. […] (^14C-PEA, 0.5 μM).
The amount of neutral and/or acidic metabolites formed as a result of MAO activity was obtained by measuring the radioactivity of the eluate.
The activity of MAO in the sample, corresponding to a percentage of radioactivity compared with the control activity in the absence of the inhibitor, was expressed as nmoles of substrate transformed/mg protein/min.

Chain of MAO-B (P19643 whole entry): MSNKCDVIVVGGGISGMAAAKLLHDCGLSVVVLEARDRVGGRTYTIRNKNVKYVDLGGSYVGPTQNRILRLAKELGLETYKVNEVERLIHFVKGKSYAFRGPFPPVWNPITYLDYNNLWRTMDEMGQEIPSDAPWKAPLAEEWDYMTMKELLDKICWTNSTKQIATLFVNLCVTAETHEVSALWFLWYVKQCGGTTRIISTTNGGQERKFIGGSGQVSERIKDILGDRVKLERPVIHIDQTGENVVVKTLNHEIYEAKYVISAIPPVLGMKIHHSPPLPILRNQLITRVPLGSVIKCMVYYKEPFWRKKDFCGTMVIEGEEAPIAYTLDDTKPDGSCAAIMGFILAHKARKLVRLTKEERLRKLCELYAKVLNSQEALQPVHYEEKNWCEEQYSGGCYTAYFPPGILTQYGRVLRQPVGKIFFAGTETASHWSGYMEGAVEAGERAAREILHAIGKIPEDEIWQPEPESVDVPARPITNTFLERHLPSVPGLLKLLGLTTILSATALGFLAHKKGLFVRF

On to `C[C@H](NCc1ccc(OCc2ccccc2F)cc1)C(N)=O` [Ralfinamide methanesulfonate, (S)-(+)-2-[4-(2-fluorobenzyloxy)benzylamino]propanamide], for which the “Reversal of PPI impairment induced by d-amphetamine” value in test [1] was “did not reverse”. In addition, the IC50 (as a rule, the concentration needed to halve the response being measured) on MAO-B stood at 132 nM.

The record behind these values is patent publication US8445539B2, “Alpha-aminoamide derivatives useful in the treatment of psychiatric disorders” (priority 2007, dated 2013).
